Assays:
[1] = system: Puccinia recondita f. sp. tritici; assay: Test B: test suspension sprayed on wheat seedlings one day before inoculation with Puccinia recondita f. sp. tritici spores (wheat leaf rust), disease rating; format: in vivo; conditions: 100 = 100% disease control, 0 = no control
Procedure, shortened: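 Wheat seedlings were sprayed to run-off with compound suspended in 50/50 acetone/water containing 250 ppm PEG400, then inoculated with P. recondita f. sp. tritici spores the next day. Plants were held 24 h in saturated air at 20 °C, then 6 days in a growth chamber at 20 °C. Disease control was rated 0–100% relative to controls, with some entries run at 50 or 10 ppm.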

Phakopsora pachyrhizi = assay: Test A: test suspension sprayed on soybean seedlings one day before inoculation with Phakopsora pachyrhizi spores (Asian soybean rust), visual disease rating; format: in vivo; conditions: 100 = 100% disease control, 0 = no control; for pest or weed control at 10 ppm / pest or weed control at 50 ppm: Phakopsora pachyrhizi
Procedure, shortened: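 Compound dissolved in acetone (3% of final volume), then suspended at the stated ppm in 50/50 acetone/water with 250 ppm PEG400 surfactant; sprayed to run-off on soybean seedlings, inoculated with P. pachyrhizi spores next day. Held saturated at 22° C for 24 h, then 8 days at 22° C; visual rating as % disease control versus controls.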

SMILES | Test B rating (disease control) ([1]; 10 ppm test suspension) [%] | Test A rating (disease control) (Phakopsora pachyrhizi; 10 ppm test suspension) [%] | other results
C=CCOC(=O)c1cnn(Cc2ccc(O/C=C(\OCC)C(F)(F)F)cc2)c1 [compound 246] | 0 | 100 | –
O=C(OCC1CCC1)c1cnn(Cc2ccc(OCC3(C(F)(F)F)OCCO3)cc2)c1 [compound 249] | 0 | 100 | –
CCO/C(=C\Oc1ccc(Cn2nccc2C(=O)OC)cc1)C(F)(F)F [compound 250] | 0 | 0 | –
CCO/C(=C\Oc1ccc(Cn2ccc(C(=O)OC)n2)cc1)C(F)(F)F [compound 251] | 9 | 100 | –
CCO/C(=C\Oc1ccc(Cn2nccc2C(=O)OC(C)(C)C)cc1)C(F)(F)F [compound 252] | 0 | 0 | –
CCO/C(=C\Oc1ccc(Cn2ccc(C(=O)OC(C)(C)C)n2)cc1)C(F)(F)F [compound 253] | 0 | 0 | –
CCO/C(=C\Oc1ccc(Cc2ncc(C(=O)NCC3CC3)s2)cc1)C(F)(F)F [compound 254] | 0 | 73 | –
CCO/C(=C\Oc1ccc(Cc2ncc(C(=O)NCC(F)F)o2)cc1)C(F)(F)F [compound 255] | 0 | 89 | –
CCO/C(=C\Oc1ccc(Cc2ncc(C(=O)NCC3CC3)o2)cc1)C(F)(F)F [compound 258] | 0 | 96 | –
CCOC(=O)c1cnn(Cc2ccc(OCC(O)(O)C(F)(F)F)c(F)c2)c1 [compound 264] | – | – | pest or weed control at 10 ppm ([1]; 10 ppm test suspension): 80%; pest or weed control at 10 ppm (Phakopsora pachyrhizi; 10 ppm test suspension): 99%
CCOC(=O)c1cnn(C(C)c2ccc(O/C=C(\OCC)C(F)(F)F)cc2)c1 (centres unmarked) [compound 267] | 0 | 94 | –
CCOC(=O)C1CCN(Cc2ccc(O/C=C(\OCC)C(F)(F)F)cc2)CC1 [compound 268] | 0 | 99 | –
CCOC(=O)C1CCCN(Cc2ccc(O/C=C(\OCC)C(F)(F)F)cc2)C1 (centres unmarked) [compound 269] | 0 | 100 | –
O=C(OCC1CCCCC1)c1cnn(Cc2ccc(OCC3(C(F)(F)F)OCCO3)cc2)c1 [compound 272] | 0 | 100 | –
CCOC(=O)c1cnn(Cc2ccc(OCC3(C(F)(F)F)OCCO3)s2)c1 [compound 273] | – | – | pest or weed control at 50 ppm ([1]; 50 ppm test suspension): 0%; pest or weed control at 50 ppm (Phakopsora pachyrhizi; 50 ppm test suspension): 100%
CCOC(=O)C1=NOC(c2ccc(O/C=C(\OCC)C(F)(F)F)cc2)C1 (centres unmarked) [compound 278] | – | – | Test B rating (disease control) ([1]; 50 ppm test suspension): 0%; Test A rating (disease control) (Phakopsora pachyrhizi; 50 ppm test suspension): 94%
CCO/C(=C\Oc1ccc([N+](=O)[O-])cc1)C(F)(F)F [compound 279] | – | – | Test B rating (disease control) ([1]; 50 ppm test suspension): 0%; Test A rating (disease control) (Phakopsora pachyrhizi; 50 ppm test suspension): 0%
CSc1nccc(Cc2ccc(OCC3(C(F)(F)F)OCCO3)cc2)n1 [compound 281] | – | – | Test B rating (disease control) ([1]; 50 ppm test suspension): 98%; Test A rating (disease control) (Phakopsora pachyrhizi; 50 ppm test suspension): 95%
CS(=O)(=O)c1nccc(Cc2ccc(OCC3(C(F)(F)F)OCCO3)cc2)n1 [compound 282] | – | – | Test B rating (disease control) ([1]; 50 ppm test suspension): 0%; Test A rating (disease control) (Phakopsora pachyrhizi; 50 ppm test suspension): 0%

SMILES | Test B rating (disease control) ([1]; 10 ppm test suspension) [%] | Test A rating (disease control) (Phakopsora pachyrhizi; 10 ppm test suspension) [%] | other results
O=C(OCC1CCCC1)c1cnn(Cc2ccc(OCC3(C(F)(F)F)OCCO3)cc2)c1 [compound 284] | 0 | 100 | –
CC=CCOC(=O)c1cnn(Cc2ccc(OCC3(C(F)(F)F)OCCO3)cc2)c1 [compound 285] | 0 | 100 | –
C=CCOC(=O)c1ccn(Cc2ccc(O/C=C(\OCC)C(F)(F)F)cc2)n1 [compound 291] | 0 | 100 | –
CCCOC(=O)c1ccn(Cc2ccc(O/C=C(\OCC)C(F)(F)F)cc2)n1 [compound 292] | 0 | 100 | –
CC#CCOC(=O)c1ccn(Cc2ccc(O/C=C(\OCC)C(F)(F)F)cc2)n1 [compound 293] | 0 | 100 | –
CCOC(=O)c1cnn(CCCc2ccc(O/C=C(\OCC)C(F)(F)F)cc2)c1 [compound 294] | 0 | 100 | –
CCOC(=O)c1cnn(CCCc2ccc(OCC3(C(F)(F)F)OCCO3)cc2)c1 [compound 296] | 0 | 0 | –
CCOC(=O)c1cnn(Cc2ccc(O/C=C(\OCC(F)(F)F)C(F)(F)F)cc2)c1 [compound 298] | 0 | 0 | –
CCO/C(=C\Oc1ccc(Cn2ccc(C(=O)O)n2)cc1)C(F)(F)F [compound 299] | 0 | 100 | –
CC#CCOC(=O)c1cnn(Cc2cccc(O/C=C(\OCC)C(F)(F)F)c2)c1 [compound 300] | 0 | 100 | –
CCOC(=O)c1cnn(Cc2cccc(O/C=C(\OCC)C(F)(F)F)c2F)c1 [compound 301] | – | – | pest or weed control at 50 ppm ([1]; 50 ppm test suspension): 0%; pest or weed control at 50 ppm (Phakopsora pachyrhizi; 50 ppm test suspension): 100%
CCOC(=O)c1cnn(Cc2cc(O/C=C(\OCC)C(F)(F)F)ccc2F)c1 [compound 302] | – | – | pest or weed control at 50 ppm ([1]; 50 ppm test suspension): 0%; pest or weed control at 50 ppm (Phakopsora pachyrhizi; 50 ppm test suspension): 99%
CCOC(=O)c1cnn(Cc2cccc(O/C=C(\OCC)C(F)(F)F)c2C)c1 [compound 303] | – | – | pest or weed control at 50 ppm ([1]; 50 ppm test suspension): 0%; pest or weed control at 50 ppm (Phakopsora pachyrhizi; 50 ppm test suspension): 0%
CCOC(=O)c1cnn(C(C)c2cccc(O/C=C(\OCC)C(F)(F)F)c2)c1 (centres unmarked) [compound 304] | – | – | Test B rating (disease control) ([1]; 50 ppm test suspension): 0%; Test A rating (disease control) (Phakopsora pachyrhizi; 50 ppm test suspension): 96%
O=Cc1cccc(OCC(O)(O)C(F)(F)F)c1 [compound 305] | – | – | pest or weed control at 10 ppm ([1]; 10 ppm test suspension): 0%; pest or weed control at 10 ppm (Phakopsora pachyrhizi; 10 ppm test suspension): 70%
CCO/C(=C\Oc1ccc(Cc2ccnc(S(C)(=O)=O)n2)cc1)C(F)(F)F [compound 307] | – | – | Test B rating (disease control) ([1]; 50 ppm test suspension): 0%; Test A rating (disease control) (Phakopsora pachyrhizi; 50 ppm test suspension): 0%
CCO/C(=C\Oc1ccc(Cc2ccnc(SC)n2)cc1)C(F)(F)F [compound 308] | – | – | Test B rating (disease control) ([1]; 50 ppm test suspension): 0%; Test A rating (disease control) (Phakopsora pachyrhizi; 50 ppm test suspension): 25%
CCO/C(=C\Oc1ccc(CN2CCC(C(=O)OC)CC2)cc1)C(F)(F)F [compound 309] | 0 | 100 | –

Reference: patent US20220030868A1, “FUNGICIDAL HALOMETHYL KETONES AND HYDRATES” (FMC CORPORATION, priority 2018, published 2022)
